Read-outs that look alike come from different tables or passages of the source. Where a SMILES comes first, the peptide text is derived from it. The star is where a group is joined. PNA(A) = NCCN(CC(=O)*)C(=O)Cn1cnc2c(N)ncnc21
Key:
[1] = biological target: T1, PKC-β (Homo sapiens, UniProt P05771); experiment: Competition of PRE with PKC-β antibody binding, Protocol B, IMR-32
T1 construct: PRE 2 and PRE 3 in IMR-32 Neuroblastoma Cells: Protocol A; endogenous in cells; host or cells: IMR-32 human neuroblastoma cells
T1 sequence (P05771 whole entry): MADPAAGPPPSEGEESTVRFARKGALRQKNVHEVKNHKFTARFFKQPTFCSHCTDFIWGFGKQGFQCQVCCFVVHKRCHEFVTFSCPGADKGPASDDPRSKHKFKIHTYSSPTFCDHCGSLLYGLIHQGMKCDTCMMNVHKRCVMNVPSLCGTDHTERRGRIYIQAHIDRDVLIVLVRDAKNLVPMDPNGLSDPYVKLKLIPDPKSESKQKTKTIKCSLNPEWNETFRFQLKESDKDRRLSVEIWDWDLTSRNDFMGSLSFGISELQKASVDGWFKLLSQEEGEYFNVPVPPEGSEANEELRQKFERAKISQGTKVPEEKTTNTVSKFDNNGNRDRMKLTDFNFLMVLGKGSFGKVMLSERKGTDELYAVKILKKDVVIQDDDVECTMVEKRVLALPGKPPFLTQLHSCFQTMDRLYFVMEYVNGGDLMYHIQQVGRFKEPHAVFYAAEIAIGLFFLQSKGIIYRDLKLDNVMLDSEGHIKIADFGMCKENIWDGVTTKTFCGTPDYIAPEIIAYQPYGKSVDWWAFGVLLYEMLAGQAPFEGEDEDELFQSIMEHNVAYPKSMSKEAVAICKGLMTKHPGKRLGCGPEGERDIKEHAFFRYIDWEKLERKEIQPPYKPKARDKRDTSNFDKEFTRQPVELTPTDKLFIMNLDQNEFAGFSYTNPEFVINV
Protocol: The ability of the peptides PRE 2 and PRE 3 (see Table 4) to interfere with the binding of a PKC-α-specific polyclonal antibody (Santa Cruz Biotechnology, Inc.) to PKC-α was determined using a modified version of the protocol outlined above in which the test peptide was added directly to the cell extract prior to electrophoresis at a concentration of either 5× or 15× the concentration of the protein applied to each well of the gel for the Western blots (20 μg).
Peptides PRE 2 and PRE 3 (see Table 4) were tested for their ability to interfere with the binding of a PKC-β-specific polyclonal antibody (Santa Cruz Biotechnology, Inc.) to PKC-β using the general protocol described in Example 3.

[2] = tested on: IMR-32 human neuroblastoma cells; settings: IMR-32
Protocol: The ability of compounds PKI 1, PKI 2 and PKI 3 to inhibit cancer cell proliferation was tested in vitro using the human neuroblastoma cell line IMR-32. Monolayer cell cultures were trypsinized and the test compound was added at the doses indicated in Table 24 and internalized by pinocytic endocytosis using Influx TM pinocytic cell-loading reagent, a kit from Molecular Probes (Eugene, Oreg.) following the manufacturer's recommendations. The indicated doses refer to the concentration in the loading medium, which was used on 1×10^6 cells in a 10 μl volume, i.e. contained 10 μg to 100 ug of test compound that provides […] per cell. […] The cells were treated on day 0 of the experiment. The cells loaded with test compound were cultured in 96 well plates (5,000 cells in 100 μl per well), and the proliferation was monitored over 3 consecutive days. The increase in cell population was quantified using a Hoechst reagent-based assay (modified from Rao and Otto, 1992, Analytical Biochem. 207:186-192) that measures the total DNA of the population. Fluorescence was measured using a Millipore CytoFluor 2350 plate reader (excitation at 360 nm and emission at 460 nm). The measurements were obtained as relative fluorescence intensity, a value that is directly correlated to the total number of cells. Data are expressed as a percentage of matching controls that were supplemented with culture medium alone.
The ability of the compound TIM 9 to inhibit cancer cell proliferation was tested in vitro using the human neuroblastoma cell line IMR-32 and following the general protocol described in Example 14.
The ability of the compound TIM 11 to inhibit IMR-32 cancer cell proliferation was tested in vitro following the general protocol described in Example 14.
The ability of the compound TIM 10 to inhibit cancer cell proliferation was tested in vitro using the human neuroblastoma IMR-32 cell line and following the general protocol described in Example 14.

[3] = tested on: H661 human non-small cell lung cancer cells; experiment: Inhibition of NSCLC cell proliferation (protocol of Example 14); assay type: cell-based; settings: for % Cell Survival (±S.D.): H661
Protocol: The ability of compounds PKI 1, PKI 2 and PKI 3 to inhibit cancer cell proliferation was tested in vitro using the human neuroblastoma cell line IMR-32. Monolayer cell cultures were trypsinized and the test compound was added at the doses indicated in Table 24 and internalized by pinocytic endocytosis using Influx TM pinocytic cell-loading reagent, a kit from Molecular Probes (Eugene, Oreg.) following the manufacturer's recommendations. The indicated doses refer to the concentration in the loading medium, which was used on 1×10^6 cells in a 10 μl volume, i.e. contained 10 μg to 100 ug of test compound that provides […] per cell. It is worth noting, however, that only a small proportion of the compound is internalized using this technique, so the actual dose may be lower. The cells were treated on day 0 of the experiment. The cells loaded with test compound were cultured in 96 well plates (5,000 cells in 100 μl per well), and the proliferation was monitored over 3 consecutive days. The increase in cell population was quantified using a Hoechst reagent-based assay (modified from Rao and Otto, 1992, Analytical Biochem. 207:186-192) that measures the total DNA of the population. Fluorescence was measured using a Millipore CytoFluor 2350 plate reader (excitation at 360 nm and emission at 460 nm). The measurements were obtained as relative fluorescence intensity, a value that is directly correlated to the total number of cells. Data are expressed as a percentage of matching controls that were supplemented with culture medium alone.
The ability of the compound TIM 10 to inhibit cancer cell proliferation was tested in vitro using the human non-small cell lung cancer cell line H661 and following the general protocol described in Example 14. The effect of compound TIM 10 on CCD-16Lu cells (normal immortalized human lung fibroblasts) was also assessed by the same protocol. The results after 24, 48 and 72 hours of treatment are shown in Table 31 (H661 cell line) and FIG. 24 (A: CCD-16LU cell line, and B: H661 cell line). The change in dose effect at 48 and 72 hrs in normal cells (see FIG. 24A) for lower doses of compound TIM 10 was interpreted as being due to the probable intracellular degradation of compound TIM 10 which would reduce the level of compound TIM 10 to doses that no longer affect growth. In H661 cells, however, at doses of 1 mM compound TIM 10 was not degraded and its sub localization was not altered as assessed by western blot and immunocytochemistry imaging.

[4] = tested on: CCD-16Lu normal immortalized human lung fibroblasts; experiment: Proliferation of normal lung cells (protocol of Example 14); assay type: cell-based

CC[C@H](C)[C@H](NC(=O)[C@H](CO)NC(=O)[C@@H](NC(=O)CNC(=O)[C@@H](NC(=O)[C@H](CC(C)C)NC(=O)[C@H](CC(N)=O)NC(=O)[C@H](CCC(N)=O)NC(=O)[C@H](C)NC(=O)[C@H](CC(=O)O)NC(=O)CNC(=O)CNC(=O)[C@H](CCCCN)NC(=O)[C@@H](NC(=O)[C@H](CCC(=O)O)NC(=O)[C@H](CCC(N)=O)NC(=O)[C@@H](NC(=O)CNC(=O)[C@H](CCCCN)NC(=O)[C@H](C)NC(C)=O)[C@@H](C)CC)C(C)C)[C@@H](C)CC)[C@@H](C)CC)C(N)=O [PRE 3] (Ac-AKGIQEVKGGDAQNLIGISI-NH2)
Band Intensity ([1]; 100 μg): 0.0 | Relative Intensity (%) ([1]; 100 μg): 0.0% | Band Intensity ([1]; 200 μg): 0.0 | Band Intensity ([1]; 300 μg): 0.0 | Relative Intensity (%) ([1]; 300 μg): 0.0%

CC[C@H](C)[C@H](NC(=O)[C@H](CO)NC(=O)[C@@H](NC(=O)CNC(=O)[C@@H](NC(=O)[C@H](CC(C)C)NC(=O)[C@H](CC(N)=O)NC(=O)[C@H](CCC(N)=O)NC(=O)[C@H](C)NC(=O)[C@H](CC(=O)O)NC(=O)[C@H](CCCCN)NC(=O)CNC(=O)CNC(=O)CNC(=O)CNC(=O)CNC(=O)CNC(=O)CNC(=O)[C@H](CC(C)C)NC(=O)[C@H](CCCNC(=N)N)NC(=O)[C@H](Cc1ccccc1)NC(=O)[C@H](CCCCNC(=O)CN(CCN)C(=O)Cn1cnc2c(N)ncnc21)NC(=O)[C@H](CCCNC(=N)N)NC(=O)[C@H](CCCNC(=N)N)NC(=O)[C@H](Cc1ccccc1)NC(C)=O)[C@@H](C)CC)[C@@H](C)CC)C(N)=O [TIM 10] (Ac-FRRK(PNA(A))FRLGGGGGGGKDAQNLIGISI-NH2)
% Cell Survival ([2]; 100 μM, 24 Hours): 93% | % Cell Survival ([2]; 100 μM, 48 Hours): 80% | % Cell Survival ([2]; 100 μM, 72 Hours): 77% | % Cell Survival ([2]; 500 μM, 24 Hours): 91% | % Cell Survival ([2]; 500 μM, 48 Hours): 76% | % Cell Survival ([2]; 500 μM, 72 Hours): 73% | % Cell Survival ([2]; 1 mM, 24 Hours): 90% | % Cell Survival ([2]; 1 mM, 48 Hours): 77% | % Cell Survival ([2]; 1 mM, 72 Hours): 70% | % Cell Survival ([2]; 5 mM, 24 Hours): 81% | % Cell Survival ([2]; 5 mM, 48 Hours): 76% | % Cell Survival ([2]; 5 mM, 72 Hours): 66% | % Cell Survival (±S.D.) ([3]; 100 μM, 24 Hours): 97 (6) % | % Cell Survival (±S.D.) ([3]; 100 μM, 48 Hours): 85 (3) % | % Cell Survival (±S.D.) ([3]; 100 μM, 72 Hours): 51 (5) % | % Cell Survival (±S.D.) ([3]; 500 μM, 24 Hours): 91 (5) % | % Cell Survival (±S.D.) ([3]; 500 μM, 48 Hours): 82 (2) % | % Cell Survival (±S.D.) ([3]; 500 μM, 72 Hours): 49 (7) % | % Cell Survival (±S.D.) ([3]; 1 mM, 24 Hours): 85 (9) % | % Cell Survival (±S.D.) ([3]; 1 mM, 48 Hours): 82 (2) % | % Cell Survival (±S.D.) ([3]; 1 mM, 72 Hours): 45 (6) % | % Cell Survival (±S.D.) ([3]; 5 mM, 24 Hours): 83 (7) % | % Cell Survival (±S.D.) ([3]; 5 mM, 48 Hours): 79 (2) % | % Cell Survival (±S.D.) ([3]; 5 mM, 72 Hours): 43 (5) % | intracellular degradation ([3]; H661 cells, 1 mM, western blot and immunocytochemistry): not degraded | effect on normal lung cells relative to H661 [4]: less affected

— patent US20110039770A1, “INHIBITORS OF PROTEIN KINASE C ISOFORMS AND USES THEREOF” (PHARMAGAP INC., priority 2005, published 2011)
